Experimental data taken from paper PMC10135567, “New Indole-3-Propionic Acid and 5-Methoxy-Indole Carboxylic Acid Derived Hydrazone Hybrids as Multifunctional Neuroprotectors” (Antioxidants, 2023).

Columns and labels:
[1] = MTT cell viability assay (cytotoxicity), SH-SY5Y; conditions: human, SH-SY5Y neuroblastoma cells
Description: Neuroblastoma cell line SH-SY5Y (94030304) was acquired from the European Collection of Cell Cultures (ECACC, Salisbury, UK). Cells were cultured in a medium prepared with RPMI basic media supplemented with 10% heat-inactivated FBS (fetal bovine serum), 2 mM L-glutamine, 1% antibiotics (penicillin/streptomycin), and incubated at 37 °C in a humidified atmosphere containing 5% of CO2. The culture’s medium was replaced at a time interval of 2–3 days.
(§1) Cell viability was assessed via the mitochondrial reductase-dependent reaction of (3-(4,5-dimethylthiazol-2-yl)- 2,5-diphenyl tetrazolium bromide (MTT, cat. no. 475989, Calbiochem, Merck KGaA, Darmstadt, Germany). The SH-SY5Y and bEnd3 cell lines were seeded in 96-well plates at a density of 0.7 × 10^4 (bEnd3) or 2 × 10^4 (SH-SY5Y) cells/well and allowed to adhere for 24 h at 37 °C, 5% CO2. Then, the cells were incubated with the compounds (1–500 μM) for a preset time (24 h). For the solvent, the control cells were treated with DMSO corresponding to the highest concentration of DMSO in the samples (0.5% DMSO) in order to exclude its cytotoxic effect on the cells. For each concentration, a set of at least 6 wells were used. After incubation, the solution from each well was exchanged with fresh culture medium (100 µL/well), containing the MTT reagent (0.5 mg/mL) and incubated for 3 h at 37 °C in a humidified atmosphere and 5% CO2. The obtained formazan crystals were dissolved in 100 µL/well of 5% formic acid in propan-2-ol solution (or DMSO). The absorbance was measured at 570 nm via multiplate reader Tecan Infinite F200 PRO (Tecan Trading AG., Männedorf, Switzerland) or Synergy 2 (BioTek Instruments, Inc., Highland Park, Winooski, VT, USA).
(§2) Both the SH-SY5Y and bEnd3 cells were treated with the test compounds in a concentration range from 1 to 500 µM for 24 h.

[2] = MTT cell viability assay (cytotoxicity), bEnd3; format: cell-based, mouse; conditions: mouse, bEnd3 brain endothelial cells, 1–500 µM
Description: Mouse-brain endothelial cell line bEnd3 [36] (CRL-2299) was purchased from the American Type Culture Collection (ATCC, Manassas, VA, USA). The cells were cultured in DMEM (Dulbeco’s modified essential medium) (cat. no. 30-2002, ATCC, Manassas, VA, USA), supplemented with 10% heat-inactivated FBS (cat. no. F7524, Sigma-Aldrich Co. LLC, St. Louis, MO, USA), 1 mM L-glutamine (cat. no. G7513, Sigma-Aldrich Co. LLC, St. Louis, MO, USA) and 1× Antibiotic-Antimycotic solution (penicillin: streptomycin: amphotericin B (100 U/mL: 0.10 mg/mL: 0.25 µg/mL) (cat. no. A5955, Sigma-Aldrich Co. LLC, St. Louis, MO, USA) at 37 °C in a humidified atmosphere containing 5% CO2. The cells were passaged in 75 cm^2 flasks every 3–5 days via trypsinization (StableCell Trypsin solution, cat. no. T2610, Sigma-Aldrich Co. LLC, St. Louis, MO, USA).
as §1, §2

[3] = Fe(II)-induced lipid peroxidation assay (LP assay, TBARS); format: biochemical; conditions: 90 µM, lecithin 1 mg/mL, 0.1 mM FeCl2; lower = stronger antioxidant
Description: The lipid peroxidation assay and a modification of the deoxyribose-degradation assay were used. Two types of measurement compositions in phosphate buffer (PB–K2HPO4/KH2PO4, pH 7.4) were prepared for both tests: (i) samples, containing the biologically relevant molecules (lecithin emulsion or deoxyribose), iron, and the tested hydrazones at the concentrations indicated below the figures; and (ii) controls, in which the tested hydrazones were omitted. The data for the sample activity were presented as a percentage of the control measurement.
The thiobarbituric-acid reactive-substance colorimetric test was performed in a model system of Fe(II)-induced lipid peroxidation as an emulsion prepared from egg yolk phospholipids. Each sample contained 1 mg/mL of lecithin. LP was initiated using 0.1 mM FeCl2. After 30 min incubation at 37 °C, 0.5 mL of 2.8% trichloroacetic acid solution and 0.5 mL of 0.5% thiobarbituric acid solution were added, following a second incubation at 100 °C for 20 min. Centrifugation at 3000 rpm for 20 min at 4 °C was performed, and we determined the absorbance value of the supernatant at 532 nm via Shimadzu UV-1601 UV-VIS spectrophotometer.

Row | SMILES | IC50 at 24 h [1] | IC50 at 24 h [2] | melting point | absorbance ratio sample/control (lipid peroxidation) [3]
1 | COc1cc(C=NNC(=O)CCc2c[nH]c3ccccc23)ccc1O [Compound 3d, N′-(4-Hydroxy-3-methoxybenzylidene)-3-(1H-indol-3-yl)propanehydrazide] | 156 µM | 367 µM | 157 to 158 °C | –
2 | COc1cc(C=NNC(=O)CCc2c[nH]c3ccccc23)cc(OC)c1O [Compound 3f, N′-(4-Hydroxy-3,5-dimethoxybenzylidene)-3-(1H-indol-3-yl)propanehydrazide] | > 500 µM | > 500 µM | 134 to 135 °C | below 65%
3 | COc1ccc2[nH]c(C(=O)NN=Cc3cccc(O)c3O)cc2c1 [Compound 5a, N′-(2,3-Dihydroxybenzylidene)-5-methoxy-1H-indole-2-carbohydrazide] | 79.3 µM | 197 µM | 262 to 263 °C | –
4 | COc1ccc2[nH]c(C(=O)NN=Cc3ccc(O)c(O)c3)cc2c1 [Compound 5b, N′-(3,4-Dihydroxybenzylidene)-5-methoxy-1H-indole-2-carbohydrazide] | 111 µM | 158 µM | 252 to 253 °C | –
5 | COc1ccc2[nH]c(C(=O)NN=Cc3ccc(O)cc3O)cc2c1 [Compound 5c, N′-(2,4-Dihydroxybenzylidene)-5-methoxy-1H-indole-2-carbohydrazide] | 73.9 µM | > 500 µM | – | about 45%
6 | COc1ccc2[nH]c(C(=O)NN=Cc3ccc(O)c(OC)c3)cc2c1 [Compound 5d, N′-(4-Hydroxy-3-methoxybenzylidene)-5-methoxy-1H-indole-2-carbohydrazide] | 98.2 µM | 353 µM | 261 °C | –
7 | COc1ccc(C=NNC(=O)c2cc3cc(OC)ccc3[nH]2)c(O)c1 [Compound 5e, N′-(2-Hydroxy-4-methoxybenzylidene)-5-methoxy-1H-indole-2-carbohydrazide] | 200 µM | 12.1 µM | – | about 45%
8 | COc1ccc2[nH]c(C(=O)NN=Cc3cc(OC)c(O)c(OC)c3)cc2c1 [Compound 5f, N′-(4-Hydroxy-3,5-dimethoxybenzylidene)-5-methoxy-1H-indole-2-carbohydrazide] | 287 µM | 184 µM | 239 to 240 °C | about 45%
9 | COc1ccc2[nH]cc(CCNC(C)=O)c2c1 [Melatonin] | > 500 µM | > 500 µM | – | –
